Experimental data as given in PubChem BioAssay (NCI).
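Briefly, cells in 96-well plates were exposed to five compound concentrations for 48 h, and endpoints were estimated by linear interpolation. TGI: total growth inhibition.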

How the values were obtained:
Assay in all cases: NCI tumour cell line growth inhibition, 48 h
786-0 renal = test system: 786-0 renal
A549 NSCLC = test system: A549 NSCLC
ACHN renal = test system: ACHN renal
BT-549 breast = test system: BT-549 breast
CCRF-CEM leukemia = test system: CCRF-CEM leukemia
COLO 205 colon = test system: COLO 205 colon
DU-145 prostate = test system: DU-145 prostate
EKVX NSCLC = test system: EKVX NSCLC
HCC-2998 colon = test system: HCC-2998 colon
HCT-116 colon = test system: HCT-116 colon
HCT-15 colon = test system: HCT-15 colon
HL-60(TB) leukemia = test system: HL-60(TB) leukemia
HOP-62 NSCLC = test system: HOP-62 NSCLC
HOP-92 NSCLC = test system: HOP-92 NSCLC
HS 578T breast = test system: HS 578T breast
HT29 colon = test system: HT29 colon
IGROV1 ovarian = test system: IGROV1 ovarian
K-562 leukemia = test system: K-562 leukemia
KM12 colon = test system: KM12 colon
LOX IMVI melanoma = test system: LOX IMVI melanoma
M14 melanoma = test system: M14 melanoma
MALME-3M melanoma = test system: MALME-3M melanoma
MCF7 breast = test system: MCF7 breast
MDA-MB-231 breast = test system: MDA-MB-231 breast
MDA-MB-435 = test system: MDA-MB-435
MDA-N = test system: MDA-N
MOLT-4 leukemia = test system: MOLT-4 leukemia
NCI-H226 lung = test system: NCI-H226 lung
NCI-H23 lung = test system: NCI-H23 lung
NCI-H460 lung = test system: NCI-H460 lung
OVCAR-3 ovarian = test system: OVCAR-3 ovarian
OVCAR-4 ovarian = test system: OVCAR-4 ovarian
OVCAR-5 ovarian = test system: OVCAR-5 ovarian
OVCAR-8 ovarian = test system: OVCAR-8 ovarian
PC-3 prostate = test system: PC-3 prostate
RPMI-8226 leukemia = test system: RPMI-8226 leukemia
RXF 393 renal = test system: RXF 393 renal
SF-268 CNS = test system: SF-268 CNS
SF-295 CNS = test system: SF-295 CNS
SF-539 CNS = test system: SF-539 CNS
SK-MEL-2 melanoma = test system: SK-MEL-2 melanoma
SK-MEL-28 melanoma = test system: SK-MEL-28 melanoma
SK-MEL-5 melanoma = test system: SK-MEL-5 melanoma
SK-OV-3 ovarian = test system: SK-OV-3 ovarian
SN12C renal = test system: SN12C renal
SNB-19 CNS = test system: SNB-19 CNS
SNB-75 CNS = test system: SNB-75 CNS
SR leukemia = test system: SR leukemia
SW-620 colon = test system: SW-620 colon
T-47D breast = test system: T-47D breast
TK-10 renal = test system: TK-10 renal
U251 CNS = test system: U251 CNS
UACC-62 melanoma = test system: UACC-62 melanoma
UO-31 renal = test system: UO-31 renal
CAKI-1 renal = test system: CAKI-1 renal
NCI-H522 lung = test system: NCI-H522 lung
NCI/ADR-RES ovarian = test system: NCI/ADR-RES ovarian
UACC-257 melanoma = test system: UACC-257 melanoma

Measured: TGI

Cc1nnc2n(c1=O)CCCN2C
not listed: CAKI-1 renal | NCI-H522 lung | NCI/ADR-RES ovarian | UACC-257 melanoma
> 100 µM: all other assays above

O=c1[nH]c(NCc2ccncc2)nc2nc[nH]c12
not listed: HL-60(TB) leukemia | SF-539 CNS | SK-MEL-28 melanoma | SR leukemia
> 100 µM: all other assays above
